Consider ten molecules from patent US20250304535A1, “KAT6 Inhibitors” (BeiGene Switzerland GmbH, priority 2024, published 2025).

What is called IC50 is the concentration needed to halve the response being measured.

Test [1] has as its target Recombinant human KAT6B protein (657-1069) (Homo sapiens (Human), UniProt Q8WYB5). The test can be described thus: KAT6B biochemical TR-FRET assay. As to conditions: histone H4 peptide 1000 nM, AcCoA 100 nM, enzyme 5 nM. In general terms: TR-FRET usually uses a lanthanide donor and a delayed reading to cut background.
Test [2] concerns the target Recombinant human KAT6A protein (497-780) (Homo sapiens (Human), UniProt Q92794). The test can be described thus: KAT6A biochemical TR-FRET assay. As to conditions: histone H4 peptide 2000 nM, AcCoA 300 nM, enzyme 5 nM.
Test [3] relates to histone H3K23 acetylation in U-2 OS cells. The test can be described thus: Histone H3 lysine 23 acetylation assay in U-2 OS cells (high content analysis). As to conditions: 24 hrs exposure, H3K23ac level. It is filed as cell-based. An outline of the steps: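 U-2 OS cells seeded overnight, then exposed 24 h to a 9-point compound dilution series; 0.1% DMSO medium as blank. Fixed, permeabilised, stained with anti-H3K23ac plus Alexa Fluor 647 secondary and DAPI; nuclear H3K23ac intensity read by high-content imaging. Inhibition = mean per-well cell intensity relative to on-plate blanks.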

Sequence of Recombinant human KAT6A protein (497-780) (Q92794 497-780): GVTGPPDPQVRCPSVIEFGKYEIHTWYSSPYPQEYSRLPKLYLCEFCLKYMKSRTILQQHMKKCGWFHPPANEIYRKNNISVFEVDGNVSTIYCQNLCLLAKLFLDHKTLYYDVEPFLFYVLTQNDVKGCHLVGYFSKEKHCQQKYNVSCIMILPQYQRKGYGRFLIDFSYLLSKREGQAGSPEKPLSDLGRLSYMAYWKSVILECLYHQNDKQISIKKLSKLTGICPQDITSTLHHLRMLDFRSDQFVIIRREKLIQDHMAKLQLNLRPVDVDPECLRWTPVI
Sequence of Recombinant human KAT6B protein (657-1069) (Q8WYB5 657-1069): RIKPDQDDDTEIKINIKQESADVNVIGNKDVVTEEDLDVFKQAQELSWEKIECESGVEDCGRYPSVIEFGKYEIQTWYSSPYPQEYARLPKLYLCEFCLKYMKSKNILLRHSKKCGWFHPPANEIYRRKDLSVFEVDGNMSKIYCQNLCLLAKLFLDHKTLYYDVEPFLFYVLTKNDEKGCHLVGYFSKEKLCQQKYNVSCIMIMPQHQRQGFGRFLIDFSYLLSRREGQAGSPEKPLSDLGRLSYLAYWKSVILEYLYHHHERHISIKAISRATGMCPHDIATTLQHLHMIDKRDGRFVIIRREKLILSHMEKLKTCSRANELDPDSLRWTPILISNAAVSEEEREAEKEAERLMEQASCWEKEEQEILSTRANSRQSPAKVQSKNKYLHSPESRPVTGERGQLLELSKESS

As for `COc1cc(C(=O)NS(=O)(=O)c2c(OC)ccc3c2OC(C)(C)C3)ccc1Cn1cccn1` [Example C45, 4-((1H-pyrazol-1-yl)methyl)-3-methoxy-N-((6-methoxy-2,2-dimethyl-2,3-dihydrobenzofuran-7-yl)sulfonyl)benzamide], the IC50 in test [1] was at most 5 nM; in test [2], at most 5 nM; in test [3] (Homo sapiens, U2OS), at most 10 nM.

On to `COc1ccc(C(C)(C)C)cc1S(=O)(=O)NC(=O)c1ccc(Cn2cccn2)c(C2CC2)c1` [Example C2, 4-((1H-pyrazol-1-yl)methyl)-N-((5-(tert-butyl)-2-methoxyphenyl)sulfonyl)-3-cyclopropylbenzamide], for which the half-inhibitory concentration (IC50) in test [1] was at most 5 nM; in test [2], at most 5 nM; in test [3] (Homo sapiens, U2OS), at most 10 nM.

As for `COc1ccc2c(c1S(=O)(=O)NC(=O)c1ccc(Cn3cccn3)c(OC)n1)OC1CC2C1` [Example C78, 5-((1H-pyrazol-1-yl)methyl)-6-methoxy-N-((7-methoxy-3,4-dihydro-2H-2,4-methanochroman-8-yl)sulfonyl)picolinamide], the concentration for half-maximal inhibition (IC50) is at most 5 nM in test [1], at most 5 nM in test [2] and at most 10 nM in test [3].

In the case of `COc1ccc(C(C)(C)C)nc1S(=O)(=O)NC(=O)c1ccc(Cn2cccn2)c(OC)n1` [Example C41, 5-((1H-pyrazol-1-yl)methyl)-N-((6-(tert-butyl)-3-methoxypyridin-2-yl)sulfonyl)-6-methoxypicolinamide], the concentration for half-maximal inhibition (IC50) in test [1] was at most 5 nM; in test [2], at most 5 nM; in test [3] (Homo sapiens, U2OS), at most 10 nM.

For `COc1cc(C(=O)NS(=O)(=O)c2cc(C(C)(C)C)ccc2OC)ccc1Cn1cccn1` [Example C7, 4-((1H-pyrazol-1-yl)methyl)-N-((5-(tert-butyl)-2-methoxyphenyl)sulfonyl)-3-methoxybenzamide], the IC50 was at most 5 nM in test [1]; at most 5 nM in test [2]; at most 10 nM in test [3] (Homo sapiens, U2OS).

Turning to `COc1ccc(N2CC3CCC(C2)O3)cc1S(=O)(=O)NC(=O)c1ccc(Cn2cccn2)c(OC)n1` [Example C62, 5-((1H-pyrazol-1-yl)methyl)-N-((5-(8-oxa-3-azabicyclo[3.2.1]octan-3-yl)-2-methoxyphenyl)sulfonyl)-6-methoxy-picolinamide], the IC50 is at most 5 nM in test [1]; at most 5 nM in test [2]; at most 10 nM in test [3] (Homo sapiens, U2OS).

Turning to `COc1ccc(C2(C)COC2)cc1S(=O)(=O)NC(=O)c1ccc(Cn2cccn2)c(OC)n1` [Example C75, 5-((1H-pyrazol-1-yl)methyl)-6-methoxy-N-((2-methoxy-5-(3-methyloxetan-3-yl)phenyl)sulfonyl) picolinamide], the IC50 is at most 5 nM in test [1]; at most 5 nM in test [2]; at most 10 nM in test [3] (Homo sapiens, U2OS).

On to `CCc1nc(C(=O)NS(=O)(=O)c2c(OC)ccc3c2OCC3(C)C)ccc1Cn1cccn1` [Example C53, 5-((1H-pyrazol-1-yl)methyl)-6-ethyl-N-((6-methoxy-3,3-dimethyl-2,3-dihydrobenzofuran-7-yl)sulfonyl)picolinamide], for which the IC50 in test [1] is at most 5 nM; in test [2] it was at most 5 nM; in test [3] (Homo sapiens, U2OS) it was at most 10 nM.

As for `C=Cc1cc(C(=O)NS(=O)(=O)c2cc(C(C)(C)C)ccc2OC)ccc1Cn1cccn1` [Example C4, 4-((1H-pyrazol-1-yl)methyl)-N-((5-(tert-butyl)-2-methoxyphenyl)sulfonyl)-3-vinylbenzamide], the IC50 in test [1] was at most 5 nM; in test [2], at most 5 nM; in test [3] (Homo sapiens, U2OS) it was at most 10 nM.

Take `[2H]C([2H])([2H])Oc1nc(C(=O)NS(=O)(=O)c2c(OC)ccc3c2OC(C)(C)C3)ccc1Cn1cccn1` [Example C65, 5-((1H-pyrazol-1-yl)methyl)-6-(methoxy-d3)-N-((6-methoxy-2,2-dimethyl-2,3-dihydrobenzofuran-7-yl)sulfonyl) picolinamide]: the IC50 in test [1] was at most 5 nM; in test [2] it was at most 5 nM; in test [3] (Homo sapiens, U2OS), at most 10 nM.
